The subject of one assay is thrombin. Description: Thrombin time (TT) in human plasma. As for the experimental part: (§1) Blood coagulation measurements using blood plasma taken from healthy human individuals were also performed. From the blood obtained through venipuncture and treated with sodium citrate (3.8% wt/vol) the plasma was isolated by centrifugation (2,000 g, 15 minutes, Jouan CR412 centrifuge).
(§2) The effect of the protein variants of the present invention on the blood coagulation process was tested in three standard assays, the thrombin time, testing any direct effects on thrombin; prothrombin time, testing any effects on the extrinsic pathway; and the activated partial thromboplastin time, testing any effects on the intrinsic pathway. Blood was collected from a healthy individual by vein puncture after informed consent. The blood was treated with sodium-citrate (3.8% w/v) and centrifuged. All three assays were performed on the automated instrument Sysmex CA-1500 (Sysmex) with Innovin reagent (Dale Behring, Marburg, Germany).
(§3) The inhibitors were applied in a fivefold serial dilution with the highest final concentration being 36 μM. This value is 3-4 orders of magnitudes higher than the KI values of the three protein variants of the present invention on human MASP-2. Even at the highest concentration the protein variants of the present invention have only little effect in the APTT test and no effect in the PT and TT tests.

The test system of the next assay is extrinsic pathway. Description: Prothrombin time (PT) in human plasma. As for the experimental part: as §1, §2, §3

Where no end group is shown, it is not given here.

Data on one substance can be found in patent publication US20200131249A1, “NOVEL PROTEINS AND USE THEREOF” (EVOLVERITAS KFT., priority 2017, published 2020).

With “SEQ ID NO: 14: TFPI-D2 variant protein with inhibitor loop PCRAVKR (SEQ ID NO: 4) (KPDFCFLEEDPGPCRAVKRRYFYNNQTKQCERFKYGGCLGNMNNFETLEECKNICEDG; ends and bridges not checked; cysteine pairing not given here)”, the TT in the assay with thrombin (inhibitor 0.1 μM) is recorded as 16.5 s; with thrombin (inhibitor 0.3 μM), 16.6 s; in the assay on thrombin (inhibitor 1.4 μM) it was 16.7 s; with thrombin (inhibitor 7.2 μM) it was 16.2 s; in the assay with thrombin (inhibitor 36.0 μM), 15.5 s. Besides, the PT with extrinsic pathway (inhibitor 0.1 μM) was determined as 10.8 s; in the assay on extrinsic pathway (inhibitor 0.3 μM), 10.7 s; in the assay with extrinsic pathway (inhibitor 1.4 μM), 10.8 s; in the assay with extrinsic pathway (inhibitor 7.2 μM), 10.9 s; in the assay on extrinsic pathway (inhibitor 36.0 μM), 11.3 s.
